Entries after “also recorded” stand apart in the source; their conditions may differ.
Experiments:
[1] = system: GP probe cleaving activity in plasma; assay: GP cleavage in mouse plasma in the presence of cpd60 and/or KYP; format: biochemical, mice
Description: (§1) Mouse plasma samples were prepared in K3-EDTA MiniCollect tubes (Greiner Bio-One, 450475) and frozen immediately at −80° C. prior to analysis. Human serum samples were obtained from healthy donors or purchased from Discovery Life Sciences, Inc. (Los Osos, Calif.).
(§2) Peptides of the region flanking the C-terminal human FGF21 cleavage site (VGPSQG) or a variant with D-alanine at P2 (VaPSQG) were synthesized (Anaspec, Inc.), containing an amine-terminal donor (HyLite Fluor 488 or Cy5.5 for aP NIRF) and a dark quencher-acceptor (QXL 520 or QSY21 for aP NIRF) conjugated to a supplementary C-terminal lysine. ANPFAP (Bioconjugate Chem 23:1704-11) and aP NIRF were synthesized by CPC Scientific (Sunnyvale, Calif.). Assays were conducted at 37° C. in 50 mM HEPES (pH 7.2), 150 mM NaCl, 1 mM EDTA, 0.1 mg/ml BSA. The excitation/emission wavelengths of cleaved peptide are 490/520 nm or 675/695 nm for ANPFAP and aP NIRF. Fluorescence was monitored on a Tecan M1000 Pro plate reader in kinetic mode. Except where indicated otherwise, measurements of serum or plasma FAP activity were performed with the peptide substrate concentration at 6 μM and a 10-fold dilution of serum or plasma in assay buffer.

circulating FAP activity = target: T1, circulating FAP activity (Mus musculus, UniProt P97321); assay: In vivo pharmacological FAP inhibition: mice fed chow with cpd60, plasma FAP activity by aP peptide; details: chow with 100 ppm cpd60 ad libitum, day 4 and 7
T1 construct: the extracellular domain encoding the active enzyme can be shed from the cell surface; from tissue; host or cells: mouse plasma (C57BL/6 background; Fap +/+, +/-, -/-)
T1 sequence (P97321 24-761 limits assumed): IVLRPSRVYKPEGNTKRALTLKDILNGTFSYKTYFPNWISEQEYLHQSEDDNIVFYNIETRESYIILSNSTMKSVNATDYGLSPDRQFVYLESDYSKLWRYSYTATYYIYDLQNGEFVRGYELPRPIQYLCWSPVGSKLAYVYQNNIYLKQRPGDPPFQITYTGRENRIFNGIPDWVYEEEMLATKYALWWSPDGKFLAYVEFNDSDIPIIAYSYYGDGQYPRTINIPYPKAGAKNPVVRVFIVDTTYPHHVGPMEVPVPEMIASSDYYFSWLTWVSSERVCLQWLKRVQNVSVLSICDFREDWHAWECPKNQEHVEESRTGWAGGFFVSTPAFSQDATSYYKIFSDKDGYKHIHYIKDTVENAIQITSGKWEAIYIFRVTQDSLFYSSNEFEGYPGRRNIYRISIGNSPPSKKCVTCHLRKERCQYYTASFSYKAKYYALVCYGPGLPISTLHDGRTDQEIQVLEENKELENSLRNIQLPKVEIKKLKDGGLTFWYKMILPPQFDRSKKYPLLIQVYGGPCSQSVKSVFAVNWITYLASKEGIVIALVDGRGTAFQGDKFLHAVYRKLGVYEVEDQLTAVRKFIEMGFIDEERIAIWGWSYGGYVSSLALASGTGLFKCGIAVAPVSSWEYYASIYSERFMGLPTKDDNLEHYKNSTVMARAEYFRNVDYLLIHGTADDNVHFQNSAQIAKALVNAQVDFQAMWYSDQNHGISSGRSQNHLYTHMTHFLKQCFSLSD
Description: Mice were maintained in a pathogen-free animal facility at 21° C. under standard 12 h light/12 h dark cycle with access to normal chow (Labdiet 5010) and water ad libitum unless otherwise indicated. Generation of Fap KO mice was described previously (Dunshee, et al. (2016) J Biol Chem 291:5986-96).
as §1
as §2, with “Except where indicated otherwise, measurements of serum or plasma FAP activity were performed with the peptide substrate concentration at 6 μM and a 10-fold dilution of serum or plasma in assay buffer.” left out

FAP-related activity = details: cynomolgus monkeys, cited from earlier work
recombinant human FAP = target: T2, recombinant human FAP (Homo sapiens, UniProt Q12884); assay: FRET-quench assay: probe cleavage by recombinant human FAP; format: biochemical; details: 10 nM enzyme
T2 construct: (residues L26-D760 and L26-D761, respectively); octa-His (N); made in house; host or cells: transiently transfected CHO cells (conditioned media)
T2 sequence (Q12884 26-760): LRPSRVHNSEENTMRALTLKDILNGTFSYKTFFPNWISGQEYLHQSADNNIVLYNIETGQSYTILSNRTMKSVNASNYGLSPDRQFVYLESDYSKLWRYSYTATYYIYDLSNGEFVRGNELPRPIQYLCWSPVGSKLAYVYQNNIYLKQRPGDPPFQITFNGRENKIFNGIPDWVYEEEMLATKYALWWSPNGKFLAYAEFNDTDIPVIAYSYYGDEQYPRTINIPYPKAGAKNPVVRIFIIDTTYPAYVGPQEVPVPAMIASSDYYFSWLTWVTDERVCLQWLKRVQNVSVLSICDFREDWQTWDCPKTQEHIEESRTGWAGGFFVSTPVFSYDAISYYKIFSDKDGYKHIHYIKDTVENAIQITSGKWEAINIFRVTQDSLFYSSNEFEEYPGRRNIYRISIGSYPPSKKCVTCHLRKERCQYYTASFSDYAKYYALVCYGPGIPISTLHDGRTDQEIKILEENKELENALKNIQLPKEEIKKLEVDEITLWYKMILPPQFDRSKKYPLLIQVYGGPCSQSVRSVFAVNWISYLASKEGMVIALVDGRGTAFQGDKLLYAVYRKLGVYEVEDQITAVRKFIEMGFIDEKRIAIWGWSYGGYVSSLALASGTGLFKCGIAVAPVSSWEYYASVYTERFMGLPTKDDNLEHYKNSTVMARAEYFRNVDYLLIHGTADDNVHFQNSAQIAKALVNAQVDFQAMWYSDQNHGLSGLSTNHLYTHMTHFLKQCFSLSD
From the text: (§3) Human prolyl oligopeptidase (PREP, 4308-SE), DPPIV (1180-SE), DPP9 (5419-SE), and DPPII/DPP7 (3438-SE) proteins were purchased from R&D Systems. Human DPP8 (BML-SE527) protein was purchased from Enzo Life Sciences. N-terminal octa-His-tagged human and mouse FAP proteins containing the extracellular domain (residues L26-D760 and L26-D761, respectively) were purified from the conditioned media of transiently-transfected CHO cells, by immobilized metal affinity chromatography (IMAC), followed by size exclusion chromatography (SEC).
as §2

recombinant human PREP = target: T3, recombinant human PREP (Homo sapiens, UniProt P48147); assay: FRET-quench assay: probe cleavage by recombinant human PREP; format: biochemical; details: 10 nM enzyme
T3 construct: purchased R&D Systems 4308-SE
T3 sequence (P48147 1-710): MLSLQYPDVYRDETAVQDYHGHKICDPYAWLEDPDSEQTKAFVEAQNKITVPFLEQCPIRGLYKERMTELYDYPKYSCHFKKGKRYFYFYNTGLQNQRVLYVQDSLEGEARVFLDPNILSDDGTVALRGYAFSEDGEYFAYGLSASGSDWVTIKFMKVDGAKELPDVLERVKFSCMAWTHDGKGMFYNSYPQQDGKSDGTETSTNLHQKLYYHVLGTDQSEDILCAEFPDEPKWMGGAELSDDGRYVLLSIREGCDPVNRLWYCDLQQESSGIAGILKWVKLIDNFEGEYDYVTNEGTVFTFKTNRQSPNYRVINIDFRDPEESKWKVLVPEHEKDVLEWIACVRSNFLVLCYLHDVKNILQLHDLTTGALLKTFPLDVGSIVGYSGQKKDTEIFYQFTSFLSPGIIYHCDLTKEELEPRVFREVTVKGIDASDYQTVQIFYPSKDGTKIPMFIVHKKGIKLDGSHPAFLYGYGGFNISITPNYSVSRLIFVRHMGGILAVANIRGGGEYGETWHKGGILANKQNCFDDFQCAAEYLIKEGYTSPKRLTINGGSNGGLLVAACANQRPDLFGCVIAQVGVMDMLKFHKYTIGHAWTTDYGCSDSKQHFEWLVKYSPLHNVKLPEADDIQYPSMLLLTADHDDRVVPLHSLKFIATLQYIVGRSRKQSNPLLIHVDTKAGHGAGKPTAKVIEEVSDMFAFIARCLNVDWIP
From the text: as §3, §2

tissue FAP activity = target: T4, tissue FAP activity (Mus musculus, UniProt P97321); assay: Ex vivo NIRF imaging of pancreata after i.v. probe in KPP and healthy C57BL/6 mice
T4 construct: from tissue
T4 sequence (P97321 1-761): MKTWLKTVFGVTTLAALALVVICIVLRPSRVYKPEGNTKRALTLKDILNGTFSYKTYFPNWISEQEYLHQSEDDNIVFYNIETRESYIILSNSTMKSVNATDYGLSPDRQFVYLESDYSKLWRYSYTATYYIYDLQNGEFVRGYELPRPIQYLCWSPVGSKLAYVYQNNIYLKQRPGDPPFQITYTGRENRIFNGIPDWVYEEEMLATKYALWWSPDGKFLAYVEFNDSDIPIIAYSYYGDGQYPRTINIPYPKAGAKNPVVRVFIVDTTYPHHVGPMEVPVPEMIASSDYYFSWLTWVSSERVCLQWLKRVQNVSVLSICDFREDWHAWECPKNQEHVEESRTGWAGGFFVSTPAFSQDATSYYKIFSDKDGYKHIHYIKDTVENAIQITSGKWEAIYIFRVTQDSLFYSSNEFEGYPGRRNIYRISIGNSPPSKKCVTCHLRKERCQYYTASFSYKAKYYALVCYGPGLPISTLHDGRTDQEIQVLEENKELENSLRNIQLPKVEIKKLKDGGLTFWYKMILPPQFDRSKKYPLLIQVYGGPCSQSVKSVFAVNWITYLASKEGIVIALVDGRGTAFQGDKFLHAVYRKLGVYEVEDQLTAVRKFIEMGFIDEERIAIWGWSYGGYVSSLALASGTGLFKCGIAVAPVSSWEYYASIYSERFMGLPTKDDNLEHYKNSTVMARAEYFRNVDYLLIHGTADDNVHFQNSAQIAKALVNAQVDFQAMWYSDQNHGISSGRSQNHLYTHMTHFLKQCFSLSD
From the text: The utility of the VaPSQG-NIRF probe for imaging of tissue FAP activity was studied in a genetically engineered mouse model of pancreatic cancer, KrasLSL.G12D/wt;p16/p19fl/fl;Pdx1. Cre, or “KPP” for short (Singh, M. et al. Nat. Biotechnol. 28:585-593 (2010); Aguirre, A. J. et al. Genes Dev. 17:3112-26 (2003)). […] The VaPSQG-NIRF probe was synthesized by CPC Scientific (Sunnyvale, Calif.).
Prior to the imaging study, three KPP mice (9.3 weeks old) with varying tumor volumes were selected based on an in vivo ultrasound scan. Additionally, three healthy C57BL/6 mice (8.3 weeks old) were also studied as controls. One nmol VaPSQG-NIRF probe diluted in 150 microL of PBS was intravenously administered to each mouse via tail vein under anesthesia. […] After 4 hours, the mice were euthanized and pancreas tissues were dissected. The dissected tissues were rinsed with PBS, dried with tissue paper, and put on black paper for ex vivo NIRF imaging. Near infrared images are acquired using a CCD camera (Pearl Trilogy, Li-cor).

## N#C[C@@H]1CCCN1C(=O)[C@@H]1CCCN1C(=O)CCCc1ccccc1 [KYP-2047]
[1]; Fap KO plasma
  sensitivity of residual GP probe cleaving activity to the inhibitor: sensitive

## N#C[C@@H]1CC(F)(F)CN1C(=O)CNC(=O)c1ccnc2ccccc12 [cpd60]
[1]; WT or heterozygous plasma
  sensitivity of GP probe activity to the inhibitor: clearly sensitive
Circulating FAP activity
  suppression of circulating (plasma) FAP activity: completely suppress; also recorded: undetectable levels; also recorded: completely suppressed
FAP-related activity; bolus p.o.
  change in FAP-related activity: transient decrease
FAP-related activity
  clearance from circulation: rapid clearance

## aP NIRF: identical to aP, but the FRET donor and quencher replaced with Cy5.5 and QSY21
Recombinant human FAP
  cleavage by recombinant human FAP: efficiently cleaves
Recombinant human PREP
  cleavage by recombinant human PREP: not
Tissue FAP activity; 4 hours after 1 nmol i.v., P<0.05
  relative fluorescence intensities normalized to imaging area, KPP versus healthy control pancreata: much greater fluorescence
Tissue FAP activity; KPP group, 4 hours after 1 nmol i.v.
  ex vivo imaging fluorescent signal of pancreata: strong fluorescent signal
Tissue FAP activity; mice, 1 nmol i.v. via tail vein, until euthanasia after 4 hours
  treatment-related adverse effect: No treatment-related adverse effect was observed

Reference: patent US20200055896A1, “SUBSTRATES RECOGNIZED BY FIBROBLAST ACTIVATION PROTEIN (FAP) AND METHODS OF USING THE SAME” (GENENTECH, INC., priority 2017, published 2020)
